# “Also recorded” adds a separate entry of the source. Where two headings read alike, the source gives them in different places.
# T1: GcoAB (Amycolatopsis sp., UniProt P0DPQ7)
# T1 sequence (P0DPQ7 1-407): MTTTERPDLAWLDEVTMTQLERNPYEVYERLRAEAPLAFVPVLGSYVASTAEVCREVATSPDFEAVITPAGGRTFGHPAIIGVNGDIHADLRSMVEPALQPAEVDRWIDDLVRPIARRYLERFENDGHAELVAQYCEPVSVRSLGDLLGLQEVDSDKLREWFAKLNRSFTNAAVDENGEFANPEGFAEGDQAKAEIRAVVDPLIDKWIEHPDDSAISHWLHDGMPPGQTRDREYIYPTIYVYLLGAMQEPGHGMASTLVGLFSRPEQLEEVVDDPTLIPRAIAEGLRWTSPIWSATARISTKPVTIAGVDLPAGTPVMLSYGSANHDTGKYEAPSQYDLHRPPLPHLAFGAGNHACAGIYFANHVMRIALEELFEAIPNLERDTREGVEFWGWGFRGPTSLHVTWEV
# T1 sequence (P0DPQ8 1-334 partner): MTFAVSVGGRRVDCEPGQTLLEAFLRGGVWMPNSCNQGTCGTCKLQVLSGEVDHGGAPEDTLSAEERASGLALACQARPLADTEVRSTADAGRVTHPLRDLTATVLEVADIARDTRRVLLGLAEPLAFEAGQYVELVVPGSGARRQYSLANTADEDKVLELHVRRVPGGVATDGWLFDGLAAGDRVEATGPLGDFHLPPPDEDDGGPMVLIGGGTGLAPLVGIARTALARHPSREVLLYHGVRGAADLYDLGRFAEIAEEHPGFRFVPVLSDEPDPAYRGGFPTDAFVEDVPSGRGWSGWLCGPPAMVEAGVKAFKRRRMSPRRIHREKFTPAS
# T2: GcoA (Amycolatopsis sp., UniProt P0DPQ7)
# T2 construct: GST (N, cleaved yes); made in house; host or cells: E. coli Rosetta 2 (DE3)
# T2 sequence (P0DPQ7 1-407): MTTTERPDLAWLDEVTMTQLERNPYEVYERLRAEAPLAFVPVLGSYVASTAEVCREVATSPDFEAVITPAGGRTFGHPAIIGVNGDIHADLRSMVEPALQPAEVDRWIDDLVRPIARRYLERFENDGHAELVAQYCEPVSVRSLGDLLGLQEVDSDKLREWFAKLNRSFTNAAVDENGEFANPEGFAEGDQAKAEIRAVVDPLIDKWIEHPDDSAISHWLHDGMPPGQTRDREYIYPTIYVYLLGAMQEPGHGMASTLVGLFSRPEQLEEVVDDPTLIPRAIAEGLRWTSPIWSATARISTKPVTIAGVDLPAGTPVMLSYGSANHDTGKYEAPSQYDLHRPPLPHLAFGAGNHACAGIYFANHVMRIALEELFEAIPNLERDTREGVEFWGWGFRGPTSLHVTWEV
# Tests used:
# [1] = target: T1, GcoAB; experiment: HPLC quantification of demethylated aromatic product versus NADH consumed; assay type: biochemical, Amycolatopsis sp. ATCC 39116; design: GST (N, cleaved yes); made in house; host or cells: E. coli Rosetta 2 (DE3); conditions: saturating substrate, 300 μM NADH, 0.2 μM GcoAB
# Protocol: Analyte analysis of samples was performed on an Agilent 1200 LC system (Agilent Technologies, Santa Clara, CA) equipped with a G1315A diode array detector (DAD). Each sample and standard was injected at a volume of 10 μL onto a Phenomenex Luna C18(2) column 5 μm, 4.6 × 150 mm column (Phenomenex, Torrance, CA). The column temperature was maintained at 30 °C and the buffers used to separate the analytes of interest was 0.05% acetic acid in water (A)/ acetonitrile (B). The separation was carried out using a gradient program of: (A) = 99% and (B) = 1% at time t = 0; (A) = 99% and (B) = 1% at time t = 5, (A) = 50% and (B) = 50% at t = 35 min; (A) = 1% and (B) = 99% at t = 35.01 min; (A) = 99% and (B) = 1% at t = 37.01 min; (A) = 99% and (B) = 1% at t = 47.00 min. The flow rate was held constant at 0.6 mL min^−1 resulting in a run time of 47 min. Calibration curve concentration for each analyte varied between the ranges of 2.5–200 µg L^−1. A DAD wavelength of 225 nm was used for analysis of the analytes of interest. […] A minimum of 3–5 calibration levels was used with an r^2 coefficient of 0.995 or better for each analyte and a check calibration standard (CCS) was analyzed every 10 samples to insure the integrity of the initial calibration.
# [2] = target: T1, GcoAB; experiment: Aldehyde product determination (tryptophan assay for formaldehyde, dehydrogenase assay for acetaldehyde) versus NADH consumed; assay type: biochemical, Amycolatopsis sp. ATCC 39116; design: GST (N, cleaved yes); made in house; host or cells: E. coli Rosetta 2 (DE3); conditions: formaldehyde (acetaldehyde for guaethol), saturating substrate, 300 μM NADH, 0.2 μM GcoAB
# Description: For the quantification of formaldehyde (demethylation) or acetaldehyde (de-ethylation) production, the reaction was monitored via UV/vis or fluorescence (in the case of vanillin) using the same set of conditions as outlined above for specific activity determination. After eight minutes, aliquots of the sample were removed and carried onto the respective aldehyde detection assay. For reactions that produced formaldehyde (e.g., all substrates except guaethol), a colorimetric tryptophan assay was used, described previously. Briefly, 200 µL of the reaction was quenched by adding 200 µL of 0.1% tryptophan solution in 50% ethanol, 200 µL 90% sulfuric acid and 40 µL of 1% FeCl3. The solution was then incubated in a heating block for 90 min at 70 °C. After cooling, the absorbance was read at 575 nm and the [formaldehyde] calculated by comparing to a standard curve made with 0–320 µM formaldehyde. A reaction with just the assay components was treated in the same manner as the reaction samples and used as a baseline. Control reactions included everything but GcoA/B, catalase, and substrate. Reported values are the average of ≥3 measurements.
# [Acetaldehyde] produced during the dealkylation of guaethol was also determined by using a colorimetric assay and a generated acetaldehyde standard curve. A kit from BioAssays was used. Briefly, 20 µL of the reacted sample was transferred to a 96-well plate and 80 µL of the working reagent, consisting of NAD/MTT and aldehyde dehydrogenase, was added. The reaction was incubated for 30 min at room temperature and the absorbance read at 565 nm. Aldehyde dehydrogenase and NAD react with acetaldehyde to produce acetic acid and NADH. […] Control reactions included samples without substrate and/or aldehyde dehydrogenase. Reported values are the average of ≥3 measurements.
# [3] = target: T2, GcoA; experiment: Determination of substrate dissociation constants with GcoA (UV/vis spectral shift titration; fluorescence quenching for vanillin); assay type: binding
# Protocol: A total of 0–60 µM of substrate analogs, in 0.25 or 0.5 µM aliquots, were titrated into a cuvette containing 1–6 µM GcoA in 25 mM HEPES, 50 mM NaCl, pH 7.5. The spectrum after each substrate addition was recorded, beginning with no substrate bound. The solution reached equilibrium before the next addition. A difference spectrum was made to illustrate the shift from a low-spin aquo-heme complex to the high-spin substrate-bound complex (spectral shift from 417 nm to 388 nm). […] The absorbance at 388 nm was plotted as a function of [substrate], yielding a quadratic curve that was fit to Eq. (7) to determine the KD.7 ΔAbsobs=ΔAbsmax/2EtL0+Et+KD-L0+Et+KD^2-4Et*L0. Where L0, Et, KD, and ΔAbsmax are the ligand concentrations, total protein (subunit) concentration, the equilibrium dissociation constant, and the maximum Abs388–417 nm, respectively. Reported values are the average of 2 or more measurements.
# Since the UV/vis spectra of vanillin and heme overlap, fluorescence quenching was monitored to determine the KD. […] Fluorescence emission intensity was followed upon titration of vanillin (0–350 µM) after equilibrium had been established. The % fluorescence quenched, Eq. (8), was plotted as a function of vanillin and fit to Eq. (7) above, replacing ΔAbsmax with ΔFluorescencemax.8 %Fquenched=Fmax-Fintensity/Fmax×100%.
# [4] = target: T1, GcoAB; conditions: for substrate classification with GcoAB: coupling of NADH consumption to demethylation; for binding or catalytic interaction with GcoA: screen of ten O-methylated aromatic compounds
# Protocol: The demethylation of guaiacol and substrate analogs was continuously monitored under steady-state conditions. […] A total of 100 µg/mL catalase was added to each reaction to capture any H2O2 formed during the uncoupled reaction. […] A total of 20–300 µM guaiacol (preferred substrate) or an alternate substrate from a 2.5 mM stock dissolved in DMSO was added and the reaction was monitored via measurement of UV/vis spectra for several minutes. […] A plot of vi vs [guaiacol] was fit to Eq. (2) to obtain kcat, KM, and kcat/KM. For specific activity determination, the above method was used but with saturating (300 µM) guaiacol. […] Reported values are the average of ≥3 measurements and reported errors are standard deviations.
# Reactions with vanillin were performed in the same manner described above.
# [5] = substrate: COc1ccccc1O; experiment: purified protein, by the assay type; conditions: other: 0.2 μM GcoAB, 300 μM NADH, pH 7.5, 25 °C, air
# Protocol: (§1) The demethylation of guaiacol and substrate analogs was continuously monitored under steady-state conditions. A total of 0.2 µM each of GcoA and GcoB were dissolved in air-saturated buffer (25 mM HEPES, 50 mM NaCl) in a cuvette at pH 7.5, 25 °C. A total of 100 µg/mL catalase was added to each reaction to capture any H2O2 formed during the uncoupled reaction. […] A plot of vi vs [guaiacol] was fit to Eq. (2) to obtain kcat, KM, and kcat/KM. For specific activity determination, the above method was used but with saturating (300 µM) guaiacol. […] Reported values are the average of ≥3 measurements and reported errors are standard deviations.
# [6] = substrate: CCOc1ccccc1O; experiment: purified protein, by the assay type; conditions: other: 0.2 μM GcoAB, 300 μM NADH, pH 7.5, 25 °C, air
# Protocol: as §1
# [7] = substrate: COc1ccccc1C; experiment: purified protein, by the assay type; conditions: other: 0.2 μM GcoAB, 300 μM NADH, pH 7.5, 25 °C, air
# Protocol: as §1
# [8] = substrate: COc1ccccc1; experiment: purified protein, by the assay type; conditions: other: 0.2 μM GcoAB, 300 μM NADH, pH 7.5, 25 °C, air
# Protocol: as §1
# [9] = substrate: COc1cccc(O)c1O; experiment: purified protein, by the assay type; conditions: other: 0.2 μM GcoAB, 300 μM NADH, pH 7.5, 25 °C, air
# Protocol: as §1
# [10] = 1–6 μM GcoA, 25 °C, 25 mM HEPES, 50 mM NaCl, pH 7.5, read-out: Compound KD
molecule,measurement,setting,value
COc1ccccc1C [2-methylanisole],Demethylated product: amount produced per NADH consumed,[1],0.20 ± 0.04
same,Aldehyde produced per NADH consumed,[2],0.90 ± 0.1
same,Kd,[3]; [10],1000 ± 100 nM
COc1cccc(O)c1O [3-methoxycatechol],Demethylated product: amount produced per NADH consumed,[1],0.97 ± 0.002
same,Aldehyde produced per NADH consumed,[2],0.90 ± 0.04
same,Kd,[3]; [10],3700 ± 100 nM
COc1ccccc1 [Anisole],Demethylated product: amount produced per NADH consumed,[1],0.62 ± 0.1
same,Aldehyde produced per NADH consumed,[2],1.1 ± 0.01
same,Kd,[3]; [10],1700 ± 200 nM
CCOc1ccccc1O [Guaethol],Demethylated product: amount produced per NADH consumed,[1],1.4 ± 0.3
same,reduction in kcat compared to guaiacol,[4],almost fivefold reduction
same,Aldehyde produced per NADH consumed,[2],1.5 ± 0.14
same,Kd,[3]; [10],70 ± 30 nM
"COc1ccccc1O [Guaiacol, 2-methoxyphenol]",Demethylated product: amount produced per NADH consumed,[1],1.2 ± 0.3
same,specific activity,"[4]; 300 μM guaiacol, 0.2 μM GcoA/B, 300 μM NADH, pH 7.5, 25 °C",4.6 mM NADH sec-1 [mM GcoA]-1
same,kcat,"[4]; Supplementary Figure 20, 0.2 μM GcoA/B, 300 μM NADH, ambient O2, pH 7.5, 25 °C",6.8 ± 0.5 s⁻¹
same,kcat,"[4]; Supplementary Table 4, 0.2 μM GcoA/B, 300 μM NADH, 5-300 μM guaiacol, pH 7.5, 25 °C, air",6.8 ± 0.5 s⁻¹
same,Aldehyde produced per NADH consumed,[2],1.2 ± 0.15
same,Kd,[3]; [10],6 ± 2 nM
same,Kd,"[3]; binding to GcoA, read-out: KD",6 nM
COc1cccc(OC)c1O [Syringol],Demethylated product: amount produced per NADH consumed,[1],0.21 ± 0.002
same,substrate classification with GcoAB,[4],"partial substrate, partial uncoupler"
same,Kd,[3]; [10],2800 ± 400 nM
COc1cc(C=O)ccc1O [Vanillin],Demethylated product: amount produced per NADH consumed,[1],0.20 ± 0.01
same,substrate classification with GcoAB,[4],"partial substrate, partial uncoupler"
same,Aldehyde produced per NADH consumed,[2],0.40 ± 0.04
same,Aldehyde produced per NADH consumed,[2]; listed as vanillin,less than stoichiometric amounts of formaldehyde
same,Kd,[3],37000 ± 3000 nM
COc1cc(/C=C/C(=O)O)ccc1O [ferulate],binding or catalytic interaction with GcoA,[4],no detectable binding or catalytic interaction; also recorded: preclude binding and/or demethylation
COc1ccccc1OC [veratrole],substrate classification with GcoAB,[4],non-substrate/non-binder
same,binding or catalytic interaction with GcoA,[4],no detectable binding or catalytic interaction
GcoAB (Amycolatopsis sp. ATCC 39116) (protein) MTTTERPDLAWLDEVTMTQLERNPYEVYERLRAEAPLAFVPVLGSYVASTAEVCREVATSPDFEAVITPAGGRTFGHPAIIGVNGDIHADLRSMVEPALQPAEVDRWIDDLVRPIARRYLERFENDGHAELVAQYCEPVSVRSLGDLLGLQEVDSDKLREWFAKLNRSFTNAAVDENGEFANPEGFAEGDQAKAEIRAVVDPLIDKWIEHPDDSAISHWLHDGMPPGQTRDREYIYPTIYVYLLGAMQEPGHGMASTLVGLFSRPEQLEEVVDDPTLIPRAIAEGLRWTSPIWSATARISTKPVTIAGVDLPAGTPVMLSYGSANHDTGKYEAPSQYDLHRPPLPHLAFGAGNHACAGIYFANHVMRIALEELFEAIPNLERDTREGVEFWGWGFRGPTSLHVTWEV,Km,[5],60 ± 10 µM
same,kcat,[5],6.8 ± 0.5 s⁻¹
same,kcat/Km,[5],110000 ± 20000 M⁻¹ s⁻¹
same,Km,[6],15 ± 4 µM
same,kcat,[6],1.4 ± 0.09 s⁻¹
same,kcat/Km,[6],100000 ± 20000 M⁻¹ s⁻¹
same,Km,[7],27 ± 3 µM
same,kcat,[7],4.6 ± 0.1 s⁻¹
same,kcat/Km,[7],170000 ± 20000 M⁻¹ s⁻¹
same,Km,[8],43 ± 4 µM
same,kcat,[8],3.5 ± 0.2 s⁻¹
same,kcat/Km,[8],82000 ± 8000 M⁻¹ s⁻¹
same,Km,[9],30 ± 3 µM
same,kcat,[9],2.1 ± 0.05 s⁻¹
same,kcat/Km,[9],75000 ± 7000 M⁻¹ s⁻¹

# Reference: paper PMC6021390, “A promiscuous cytochrome P450 aromatic O-demethylase for lignin bioconversion” (Nature Communications, 2018)
